In PMC4738305, “Metabolism and Disposition of Aditoprim in Swine, Broilers, Carp and Rats” (Scientific Reports, 2016):
“And” between values parts separate entries of the source, which are not always exact repeats. Equal values may be shown once.

Assay: Tissue distribution and elimination of total radioactivity (total residues) after oral ^3H-ADP for 7 d
Assay type: in vivo, carp
Design: Ke of total residues: unit not given here
Procedure: (0.1 Ci/g) through oral gavage for 7 consecutive days. All the animals were housed on the basis of their group in the cages or aquaria throughout the whole study period. A group of animals was slaughtered through exsanguination under diethyl ether inhalation of anesthesia in the period of 6 h, 1, 3, 7, 14, and 21 d after the administration. The blood samples were immediately collected into the heparinized tubes and was centrifuged at 1920 × g at 4 °C for 10 min to obtain the plasma. The tissues from the heart, liver, spleen, lung, kidney, craw (broilers), stomach, intestine, fat, skin, muscle, thymus, pancreas, bile, bladder, hair (scale for carp), genital gland, adrenal glands, swim bladder (carp), brain, lymph, and bursa (broilers) were carefully excised and collected. The tissues were thoroughly rinsed with the deionized water to remove the residuary blood, blotted to dryness, and finally to perform the homogenization. In order to avoid cross-contamination the dissecting instruments were washed during the tissue procurements. The blank tissues were collected in order to provide control matrices. The total radioactivity levels in each sample were determined through LSC. The samples extracted from the plasma, bile, and tissues of the liver, kidney, muscle, and fat/skin were analyzed through LC/MS-IT-TOF and v. ARC radiometric detection for metabolite profiling.
Measurements of the total radioactivity in each sample were conducted by Packard Tri-Carb 2900 TR liquid scintillation counter (PerkinElmer Life and Analytical Sciences). The detection time was 10 min for two cycles. The scintillation counter data were automatically corrected for counting efficiency by instrument-stored quench curve which was drawn with a series of sealed quenched […] standards. The actual radioactivity of each sample was calculated by subtracting the background value form the mean radioactivity in two blank samples. All the samples were analyzed in duplicate if the sample size allowed this. If the results were differed by more than 10% from the mean value, the samples were reanalyzed. The samples with LSC counts less than 2-fold of the level of the running background were considered to contain insufficient radioactivity for reliable quantification.
Aliquots of liquid samples (urine, plasma, bile and raised water, 200 μL) were mixed with 10 mL of Ultima Gold^TM scintillation fluid for the direct analysis by LSC. Aliquots of solid samples (feces and tissues, 200 mg) were digested overnight with 2 mL tissue solubilizer at 50 °C in a shaking water bath, followed by adding 200 μL of 0.1 mol/L EDTA-Na and 200 μL of 30% H2O2, and was bathed at 50 °C for 2 h to bleach. The obtained transparent liquid were mixed with 10 mL of scintillation fluid and finally were counted by LSC. The digestion efficiency was determined by using the blank samples spiked with ^3 H standard for digestion, and the measured radioactivity content in the digested samples were adjusted by using the digestion efficiency values.
The concentrations of ADP and/or its metabolites were analyzed by using the following equation: C = L/(2.22 × 10^9 × RM), where C is the concentration of ADP or/and its metabolites (mg/kg), L is the LSC count (dpm), R is the specific activity of the administered dose (0.1 Ci/g), and M is the weight or volume of samples (kg or L). The results are expressed as mean ± SD. The elimination kinetics of terminal phase for ADP and its metabolites were conducted by using the WinNonlin linear regression program (Pharsight corporation, Statistical consultants, Inc., Kentucky, USA).

## [3H]c1c(Cc2cnc(N)nc2N)cc(OC)c(N(C)C)c1OC [^3H-ADP]
Carp Bile
  Ke of total residues: 0.38
Carp Bile, 0.25 d after 5 mg/kg b. w. for 7 days
  Concentrations of total residues: 334.6 ± 69.0 mg/kg and 334.60 ± 69.02 mg/kg
Carp Bile, 1 d after 5 mg/kg b. w. for 7 days
  Concentrations of total residues: 89.59 ± 3.87 mg/kg
Carp Bile, 3 d after 5 mg/kg b. w. for 7 days
  Concentrations of total residues: 24.33 ± 1.91 mg/kg
Carp Bile, 7 d after 5 mg/kg b. w. for 7 days
  Concentrations of total residues: 1.34 ± 0.29 mg/kg
Carp Bile, 14 d after 5 mg/kg b. w. for 7 days
  Concentrations of total residues: 0.13 ± 0.05 mg/kg
Carp Bile, 21 d after 5 mg/kg b. w. for 7 days
  Concentrations of total residues: 0.01 ± 0.00 mg/kg
Carp Blood
  Ke of total residues: 0.20
Carp Blood, 0.25 d after 5 mg/kg b. w. for 7 days
  Concentrations of total residues: 1.73 ± 0.18 mg/kg
Carp Blood, 1 d after 5 mg/kg b. w. for 7 days
  Concentrations of total residues: 1.06 ± 0.10 mg/kg
Carp Blood, 3 d after 5 mg/kg b. w. for 7 days
  Concentrations of total residues: 0.40 ± 0.08 mg/kg
Carp Blood, 7 d after 5 mg/kg b. w. for 7 days
  Concentrations of total residues: 0.19 ± 0.02 mg/kg
Carp Blood, 14 d after 5 mg/kg b. w. for 7 days
  Concentrations of total residues: 0.05 ± 0.01 mg/kg
Carp Branchia
  Ke of total residues: 0.23
Carp Branchia, 0.25 d after 5 mg/kg b. w. for 7 days
  Concentrations of total residues: 12.73 ± 1.93 mg/kg
Carp Branchia, 1 d after 5 mg/kg b. w. for 7 days
  Concentrations of total residues: 5.46 ± 0.84 mg/kg
Carp Branchia, 3 d after 5 mg/kg b. w. for 7 days
  Concentrations of total residues: 1.66 ± 0.08 mg/kg
Carp Branchia, 7 d after 5 mg/kg b. w. for 7 days
  Concentrations of total residues: 0.22 ± 0.04 mg/kg
Carp Branchia, 14 d after 5 mg/kg b. w. for 7 days
  Concentrations of total residues: 0.05 ± 0.00 mg/kg
Carp Branchia, 21 d after 5 mg/kg b. w. for 7 days
  Concentrations of total residues: 0.01 ± 0.00 mg/kg
Carp Colla piscis
  Ke of total residues: 0.24
Carp Colla piscis, 0.25 d after 5 mg/kg b. w. for 7 days
  Concentrations of total residues: 2.78 ± 0.76 mg/kg
Carp Colla piscis, 1 d after 5 mg/kg b. w. for 7 days
  Concentrations of total residues: 1.50 ± 0.22 mg/kg
Carp Colla piscis, 3 d after 5 mg/kg b. w. for 7 days
  Concentrations of total residues: 0.41 ± 0.04 mg/kg
Carp Colla piscis, 7 d after 5 mg/kg b. w. for 7 days
  Concentrations of total residues: 0.10 ± 0.02 mg/kg
Carp Colla piscis, 14 d after 5 mg/kg b. w. for 7 days
  Concentrations of total residues: 0.03 ± 0.01 mg/kg
Carp Heart
  Ke of total residues: 0.30
Carp Heart, 0.25 d after 5 mg/kg b. w. for 7 days
  Concentrations of total residues: 5.37 ± 0.50 mg/kg
Carp Heart, 1 d after 5 mg/kg b. w. for 7 days
  Concentrations of total residues: 2.58 ± 0.57 mg/kg
Carp Heart, 3 d after 5 mg/kg b. w. for 7 days
  Concentrations of total residues: 1.11 ± 0.08 mg/kg
Carp Heart, 7 d after 5 mg/kg b. w. for 7 days
  Concentrations of total residues: 0.34 ± 0.05 mg/kg
Carp Heart, 14 d after 5 mg/kg b. w. for 7 days
  Concentrations of total residues: 0.14 ± 0.02 mg/kg
Carp Heart, 21 d after 5 mg/kg b. w. for 7 days
  Concentrations of total residues: 0.01 ± 0.00 mg/kg
Carp Intestine
  Ke of total residues: 0.21
Carp Intestine, 1 d after 5 mg/kg b. w. for 7 days
  Concentrations of total residues: 5.35 ± 0.51 mg/kg
Carp Intestine, 3 d after 5 mg/kg b. w. for 7 days
  Concentrations of total residues: 1.85 ± 0.25 mg/kg
Carp Intestine, 7 d after 5 mg/kg b. w. for 7 days
  Concentrations of total residues: 0.42 ± 0.09 mg/kg
Carp Intestine, 14 d after 5 mg/kg b. w. for 7 days
  Concentrations of total residues: 0.16 ± 0.06 mg/kg
Carp Kidney
  Ke of total residues: 0.19
Carp Kidney, 0.25 d after 5 mg/kg b. w. for 7 days
  Concentrations of total residues: 47.64 ± 9.81 mg/kg
Carp Kidney, 1 d after 5 mg/kg b. w. for 7 days
  Concentrations of total residues: 8.30 ± 1.02 mg/kg
Carp Kidney, 3 d after 5 mg/kg b. w. for 7 days
  Concentrations of total residues: 3.83 ± 0.39 mg/kg
Carp Kidney, 7 d after 5 mg/kg b. w. for 7 days
  Concentrations of total residues: 1.57 ± 0.11 mg/kg
Carp Kidney, 14 d after 5 mg/kg b. w. for 7 days
  Concentrations of total residues: 0.72 ± 0.10 mg/kg
Carp Kidney, 21 d after 5 mg/kg b. w. for 7 days
  Concentrations of total residues: 0.10 ± 0.02 mg/kg
Carp Liver
  Ke of total residues: 0.10
Carp Liver, 0.25 d after 5 mg/kg b. w. for 7 days
  Concentrations of total residues: 15.59 ± 1.52 mg/kg
Carp Liver, 3 d after 5 mg/kg b. w. for 7 days
  Concentrations of total residues: 2.53 ± 0.21 mg/kg
Carp Liver, 7 d after 5 mg/kg b. w. for 7 days
  Concentrations of total residues: 0.40 ± 0.08 mg/kg
Carp Liver, 14 d after 5 mg/kg b. w. for 7 days
  Concentrations of total residues: 0.30 ± 0.05 mg/kg
Carp Liver, 21 d after 5 mg/kg b. w. for 7 days
  Concentrations of total residues: 0.09 ± 0.01 mg/kg
Carp Muscle
  Ke of total residues: 0.23
Carp Muscle, 0.25 d after 5 mg/kg b. w. for 7 days
  Concentrations of total residues: 2.26 ± 0.62 mg/kg
Carp Muscle, 1 d after 5 mg/kg b. w. for 7 days
  Concentrations of total residues: 1.96 ± 0.48 mg/kg
Carp Muscle, 3 d after 5 mg/kg b. w. for 7 days
  Concentrations of total residues: 0.96 ± 0.10 mg/kg
Carp Muscle, 7 d after 5 mg/kg b. w. for 7 days
  Concentrations of total residues: 0.43 ± 0.09 mg/kg
Carp Muscle, 14 d after 5 mg/kg b. w. for 7 days
  Concentrations of total residues: 0.08 ± 0.00 mg/kg
Carp Roe
  Ke of total residues: 0.16
Carp Roe, 0.25 d after 5 mg/kg b. w. for 7 days
  Concentrations of total residues: 4.74 ± 1.03 mg/kg
Carp Roe, 1 d after 5 mg/kg b. w. for 7 days
  Concentrations of total residues: 3.86 ± 0.76 mg/kg
Carp Roe, 3 d after 5 mg/kg b. w. for 7 days
  Concentrations of total residues: 2.24 ± 0.36 mg/kg
Carp Roe, 7 d after 5 mg/kg b. w. for 7 days
  Concentrations of total residues: 0.85 ± 0.40 mg/kg
Carp Roe, 14 d after 5 mg/kg b. w. for 7 days
  Concentrations of total residues: 0.47 ± 0.13 mg/kg
Carp Roe, 21 d after 5 mg/kg b. w. for 7 days
  Concentrations of total residues: 0.09 ± 0.01 mg/kg
Carp Scales
  Ke of total residues: 0.24
Carp Scales, 0.25 d after 5 mg/kg b. w. for 7 days
  Concentrations of total residues: 2.59 ± 0.32 mg/kg
Carp Scales, 1 d after 5 mg/kg b. w. for 7 days
  Concentrations of total residues: 2.01 ± 0.45 mg/kg
Carp Scales, 3 d after 5 mg/kg b. w. for 7 days
  Concentrations of total residues: 0.80 ± 0.04 mg/kg
Carp Scales, 7 d after 5 mg/kg b. w. for 7 days
  Concentrations of total residues: 0.29 ± 0.07 mg/kg
Carp Scales, 14 d after 5 mg/kg b. w. for 7 days
  Concentrations of total residues: 0.06 ± 0.01 mg/kg
Carp Skin
  Ke of total residues: 0.29
Carp Skin, 0.25 d after 5 mg/kg b. w. for 7 days
  Concentrations of total residues: 3.66 ± 0.62 mg/kg
Carp Skin, 1 d after 5 mg/kg b. w. for 7 days
  Concentrations of total residues: 2.82 ± 0.91 mg/kg
Carp Skin, 3 d after 5 mg/kg b. w. for 7 days
  Concentrations of total residues: 1.48 ± 0.16 mg/kg
Carp Skin, 7 d after 5 mg/kg b. w. for 7 days
  Concentrations of total residues: 0.87 ± 0.17 mg/kg
Carp Skin, 14 d after 5 mg/kg b. w. for 7 days
  Concentrations of total residues: 0.07 ± 0.01 mg/kg
Carp Spleen
  Ke of total residues: 0.23
Carp Spleen, 0.25 d after 5 mg/kg b. w. for 7 days
  Concentrations of total residues: 63.23 ± 2.89 mg/kg
Carp Spleen, 1 d after 5 mg/kg b. w. for 7 days
  Concentrations of total residues: 27.12 ± 4.89 mg/kg
Carp Spleen, 3 d after 5 mg/kg b. w. for 7 days
  Concentrations of total residues: 8.17 ± 0.59 mg/kg
Carp Spleen, 7 d after 5 mg/kg b. w. for 7 days
  Concentrations of total residues: 0.73 ± 0.17 mg/kg
Carp Spleen, 14 d after 5 mg/kg b. w. for 7 days
  Concentrations of total residues: 0.25 ± 0.05 mg/kg
Carp Spleen, 21 d after 5 mg/kg b. w. for 7 days
  Concentrations of total residues: 0.03 ± 0.00 mg/kg
